# Starred links: 1 amine or outer side, 2 acyl side, 3 side chain; linkers in the order of their positions; H or OH if unused. Positions of bridges follow the written chain, without caps; N, C: chain ends. Non-standard residues stand in square brackets, D forms with d. Residues, ends and D or L forms follow the SMILES beside them. *: point of attachment. Bip(4'-NHCO-C6H4-3-CH2COOH) = N[C@@H](Cc1ccc(-c2ccc(NC(=O)c3cccc(CC(=O)O)c3)cc2)cc1)C(=O)O; X73 = O=C(O)CCCC(=O)Nc1ccc(-c2ccc(C[C@H](N[*:1])C(=O)[*:2])cc2)cc1; Bip(4'-NH) = O=C([C@H](Cc1ccc(-c2ccc(N[*:3])cc2)cc1)N[*:1])[*:2]; Indazole3carbonyl(1-CH2COOH) = O=C(O)Cn1nc(C(=O)*)c2ccccc21; Bip(4'-COOH) = N[C@@H](Cc1ccc(-c2ccc(C(=O)O)cc2)cc1)C(=O)O; Bip(4'-NHAc) = CC(=O)Nc1ccc(-c2ccc(C[C@H](N)C(=O)O)cc2)cc1; X36 = N=C(NCCC[C@@H](N[*:1])C(=O)[*:2])NCc1cccc(C(=O)O)c1; Ala(imidazol-2-yl) = N[C@@H](Cc1ncc[nH]1)C(=O)O; Phe(4-CF3) = N[C@@H](Cc1ccc(C(F)(F)F)cc1)C(=O)O; dArg(ω-Bn) = N=C(NCCC[C@@H](N)C(=O)O)NCc1ccccc1; Ala(morpholin-4-yl) = N[C@@H](CN1CCOCC1)C(=O)O; Benzoyl(3-OCH2COOH) = O=C(O)COc1cccc(C(=O)*)c1; Phe(3-CONH2) = NC(=O)c1cccc(C[C@H](N)C(=O)O)c1; Phe(4-CH2NH2) = NCc1ccc(C[C@H](N)C(=O)O)cc1; Bip = N[C@@H](Cc1ccc(-c2ccccc2)cc1)C(=O)O; Bta = N[C@@H](Cc1csc2ccccc12)C(=O)O; Val(3-OH) = CC(C)(O)[C@H](N)C(=O)O; 2Pal = N[C@@H](Cc1ccccn1)C(=O)O; Tic = O=C(O)[C@@H]1Cc2ccccc2CN1; 2Thi = N[C@@H](Cc1cccs1)C(=O)O; Cha = N[C@@H](CC1CCCCC1)C(=O)O; Tle = CC(C)(C)[C@H](N)C(=O)O; Aze = O=C(O)[C@@H]1CCN1; Sar = CNCC(=O)O
# Molecular target: TNFα (Homo sapiens, UniProt P01375)
# Sequence (P01375 77-233 limits assumed): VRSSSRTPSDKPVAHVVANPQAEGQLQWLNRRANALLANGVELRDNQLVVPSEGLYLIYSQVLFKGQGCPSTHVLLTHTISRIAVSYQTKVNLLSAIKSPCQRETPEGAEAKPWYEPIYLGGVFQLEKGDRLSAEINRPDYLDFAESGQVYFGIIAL
# Test: TNF-Induced HEK-Blue Assay
# Format: cell-based
# Conditions: not given
row,SMILES,IC50
1,CC[C@H](C)[C@@H]1NC(=O)[C@@H]2CCCN2C(=O)[C@H]([C@@H](C)CC)NC(=O)[C@@H](CCCNC(=N)N)NC(=O)[C@H](CC(=O)O)NC(=O)[C@H](Cc2ccccc2)NC(=O)CN(C)C(=O)[C@H](Cc2ccc(-c3ccc(NC(=O)c4nn(CC(=O)O)c5ccccc45)cc3)cc2)NC(=O)[C@H](Cc2ccc(-c3ccc(C(=O)O)cc3)cc2)NC(=O)[C@H](C(C)(C)C)NC(=O)CSC[C@@H](C(=O)NCC(N)=O)NC(=O)[C@H](CC(C)C)NC(=O)[C@H](Cc2cnc[nH]2)NC1=O [Example 359] ({CH2CO}-[Tle][Bip(4'-COOH)][Bip(4'-NH)](Indazole3carbonyl(1-CH2COOH))[Sar]FD[dR]IPIHLCG-NH2; thioether N-13),< 0.05 µM

# Same assay, conditions: HEK-Blue-CD40L cells, NF-kB-driven secreted alkaline phosphatase reporter; TNFα 0.5 ng/ml; 18 h; read-out: TNF induced HEK-Blue assay IC50 value
row,SMILES,IC50
1,CC(=O)Nc1ccc(-c2ccc(C[C@@H]3NC(=O)[C@H](Cc4ccc(-c5ccccc5)cc4)NC(=O)[C@H](CN4CCOCC4)NC(=O)CSC[C@@H](C(=O)NCC(N)=O)NC(=O)[C@H](C(C)C)NC(=O)[C@H](CCCNC(=N)N)NC(=O)[C@H](C(C)C)NC(=O)[C@@H]4CCCN4C(=O)[C@H](C(C)C)NC(=O)[C@H](CCCNC(=N)N)NC(=O)[C@H](CC(=O)O)NC(=O)[C@@H]4CCCN4C(=O)CN(C)C3=O)cc2)cc1 [Example 89] ({CH2CO}-[Ala(morpholin-4-yl)][Bip][Bip(4'-NHAc)][Sar]PDRVPVRVCG-NH2; thioether N-13),0.05 to 0.2 µM
2,CC(C)C[C@@H]1NC(=O)[C@H](CCCNC(=N)N)NC(=O)[C@H](C(C)C)NC(=O)[C@@H]2CCCN2C(=O)[C@H](Cc2ccc(O)cc2)NC(=O)[C@H](CCCNC(=N)N)NC(=O)[C@H](CC(=O)O)NC(=O)[C@@H]2CCCN2C(=O)CN(C)C(=O)[C@H](Cc2ccc(-c3ccccc3)cc2)NC(=O)[C@H](Cc2ccc(-c3ccc(C(=O)O)cc3)cc2)NC(=O)[C@H](CN2CCOCC2)NC(=O)CSC[C@@H](C(=O)NCC(N)=O)NC1=O [Example 122] ({CH2CO}-[Ala(morpholin-4-yl)][Bip(4'-COOH)][Bip][Sar]PDRYPVRLCG-NH2; thioether N-13),0.2 to 2 µM
3,CC(=O)Nc1ccc(-c2ccc(C[C@@H]3NC(=O)[C@H](Cc4ccc(-c5ccc(C(=O)O)cc5)cc4)NC(=O)[C@H](CN4CCOCC4)NC(=O)CSC[C@@H](C(=O)NCC(N)=O)NC(=O)[C@H](CC(C)C)NC(=O)[C@H](Cc4ccc(O)cc4)NC(=O)[C@H](C(C)C)NC(=O)[C@@H]4CCN4C(=O)[C@H](C(C)C)NC(=O)[C@@H](CCCNC(=N)N)NC(=O)[C@H](CC(=O)O)NC(=O)[C@H](Cc4ccc(O)cc4)NC(=O)CN(C)C3=O)cc2)cc1 [Example 166] ({CH2CO}-[Ala(morpholin-4-yl)][Bip(4'-COOH)][Bip(4'-NHAc)][Sar]YD[dR]V[Aze]VYLCG-NH2; thioether N-13),< 0.05 µM
4,CC(C)C[C@@H]1NC(=O)[C@H](Cc2ncc[nH]2)NC(=O)[C@H](C(C)C)NC(=O)[C@@H]2CCCN2C(=O)[C@H](C(C)C)NC(=O)[C@@H](CCCNC(=N)NCc2ccccc2)NC(=O)[C@H](CC(=O)O)NC(=O)[C@H](Cc2ccccn2)NC(=O)CN(C)C(=O)[C@H](Cc2ccc(-c3ccc(NC(=O)c4cccc(OCC(=O)O)c4)cc3)cc2)NC(=O)[C@H](Cc2ccc(-c3ccccc3)cc2)NC(=O)[C@H](CN2CCOCC2)NC(=O)CSC[C@@H](C(=O)NCC(N)=O)NC1=O [Example 641] ({CH2CO}-[Ala(morpholin-4-yl)][Bip][Bip(4'-NH)](Benzoyl(3-OCH2COOH))[Sar][2Pal]D[dArg(ω-Bn)]VPV[Ala(imidazol-2-yl)]LCG-NH2; thioether N-13),0.05 to 0.2 µM
5,CC(C)C[C@@H]1NC(=O)[C@H](CCCNC(=N)N)NC(=O)[C@H](C(C)C)NC(=O)[C@@H]2CCCN2C(=O)[C@H](Cc2ccc(CN)cc2)NC(=O)[C@H](CCCNC(=N)N)NC(=O)[C@H](CC(=O)O)NC(=O)[C@@H]2CCCN2C(=O)CN(C)C(=O)[C@H](Cc2ccc(-c3ccccc3)cc2)NC(=O)[C@H](Cc2ccc(-c3ccccc3)cc2)NC(=O)[C@H](C(C)(C)O)NC(=O)CSC[C@@H](C(=O)NCC(N)=O)NC1=O [Example 57] ({CH2CO}-[Val(3-OH)][Bip][Bip][Sar]PDR[Phe(4-CH2NH2)]PVRLCG-NH2; thioether N-13),0.05 to 0.2 µM
6,CC(=O)Nc1ccc(-c2ccc(C[C@@H]3NC(=O)[C@H](Cc4ccc(-c5ccccc5)cc4)NC(=O)[C@H](CN4CCOCC4)NC(=O)CSC[C@@H](C(=O)NCC(N)=O)NC(=O)[C@H](CC(C)C)NC(=O)[C@H](Cc4cccc(C(N)=O)c4)NC(=O)[C@H](C(C)C)NC(=O)[C@@H]4CCCN4C(=O)[C@H](C(C)C)NC(=O)[C@@H](CCCNC(=N)N)NC(=O)[C@H](CC(=O)O)NC(=O)[C@H](Cc4ccc(O)cc4)NC(=O)CN(C)C3=O)cc2)cc1 [Example 456] ({CH2CO}-[Ala(morpholin-4-yl)][Bip][Bip(4'-NHAc)][Sar]YD[dR]VPV[Phe(3-CONH2)]LCG-NH2; thioether N-13),0.05 to 0.2 µM
7,CC[C@H](C)[C@@H]1NC(=O)[C@@H](CCCNC(=N)N)NC(=O)[C@H](CC(=O)O)NC(=O)[C@@H]2CCCN2C(=O)CN(C)C(=O)[C@H](Cc2ccc(-c3ccc(NC(=O)c4cccc(OCC(=O)O)c4)cc3)cc2)NC(=O)[C@H](Cc2ccc(-c3ccccc3)cc2)NC(=O)[C@H](CC2CCCCC2)NC(=O)CSC[C@@H](C(=O)NCC(N)=O)NC(=O)[C@H](CC(C)C)NC(=O)[C@H](Cc2cnc[nH]2)NC(=O)[C@H](C(C)C)NC(=O)[C@@H]2CCCN2C1=O [Example 442] ({CH2CO}-[Cha][Bip][Bip(4'-NH)](Benzoyl(3-OCH2COOH))[Sar]PD[dR]IPVHLCG-NH2; thioether N-13),0.05 to 0.2 µM

# Further lines, results first:
row,IC50,SMILES
1,0.2 to 2 µM,CC(C)C[C@@H]1NC(=O)[C@H](CCCNC(=N)N)NC(=O)[C@H](C(C)C)NC(=O)[C@@H]2CCCN2C(=O)[C@H](C(C)C)NC(=O)[C@@H](CCCNC(=N)NCc2cccc(C(=O)O)c2)NC(=O)[C@H](CC(=O)O)NC(=O)[C@@H]2CCCN2C(=O)CN(C)C(=O)[C@H](Cc2ccc(-c3ccc(NC(=O)c4cccc(CC(=O)O)c4)cc3)cc2)NC(=O)[C@H](Cc2ccc(-c3ccccc3)cc2)NC(=O)[C@H](CN2CCOCC2)NC(=O)CSC[C@@H](C(=O)NCC(N)=O)NC1=O [Example 543] ({CH2CO}-[Ala(morpholin-4-yl)][Bip][Bip(4'-NHCO-C6H4-3-CH2COOH)][Sar]PD[X36]VPVRLCG-NH2; thioether N-13)
2,0.05 to 0.2 µM,CC(C)C[C@@H]1NC(=O)[C@H](Cc2ccc(CN)cc2)NC(=O)[C@H](C(C)C)NC(=O)[C@@H]2CCCN2C(=O)[C@H](C(C)C)NC(=O)[C@@H](CCCNC(=N)N)NC(=O)[C@H](CC(=O)O)NC(=O)[C@H](Cc2ccc(O)cc2)NC(=O)CN(C)C(=O)[C@H](Cc2ccc(-c3ccccc3)cc2)NC(=O)[C@H](Cc2ccc(-c3ccccc3)cc2)NC(=O)[C@H](CN2CCOCC2)NC(=O)CSC[C@@H](C(=O)NCC(N)=O)NC1=O [Example 150] ({CH2CO}-[Ala(morpholin-4-yl)][Bip][Bip][Sar]YD[dR]VPV[Phe(4-CH2NH2)]LCG-NH2; thioether N-13)
3,< 0.05 µM,CC(=O)Nc1ccc(-c2ccc(C[C@@H]3NC(=O)[C@H](Cc4ccc(-c5ccc(C(=O)O)cc5)cc4)NC(=O)[C@H](CN4CCOCC4)NC(=O)CSC[C@@H](C(=O)NCC(N)=O)NC(=O)[C@H](CC(C)C)NC(=O)[C@H](Cc4cccs4)NC(=O)[C@H](C(C)C)NC(=O)[C@@H]4CCCN4C(=O)[C@H](C(C)C)NC(=O)[C@@H](CCCNC(=N)N)NC(=O)[C@H](CC(=O)O)NC(=O)[C@H](Cc4cnc[nH]4)NC(=O)CN(C)C3=O)cc2)cc1 [Example 453] ({CH2CO}-[Ala(morpholin-4-yl)][Bip(4'-COOH)][Bip(4'-NHAc)][Sar]HD[dR]VPV[2Thi]LCG-NH2; thioether N-13)
4,0.2 to 2 µM,CC(C)C[C@@H]1NC(=O)[C@H](Cc2ccc(C(F)(F)F)cc2)NC(=O)[C@H](C(C)C)NC(=O)[C@@H]2CCCN2C(=O)[C@H](C(C)C)NC(=O)[C@@H](CCCNC(=N)N)NC(=O)[C@H](CC(=O)O)NC(=O)[C@H](Cc2ccc(O)cc2)NC(=O)CN(C)C(=O)[C@H](Cc2ccc(-c3ccccc3)cc2)NC(=O)[C@H](Cc2ccc(-c3ccccc3)cc2)NC(=O)[C@H](CN2CCOCC2)NC(=O)CSC[C@@H](C(=O)NCC(N)=O)NC1=O [Example 157] ({CH2CO}-[Ala(morpholin-4-yl)][Bip][Bip][Sar]YD[dR]VPV[Phe(4-CF3)]LCG-NH2; thioether N-13)
5,0.05 to 0.2 µM,CC[C@H](C)[C@@H]1NC(=O)[C@@H](CCCNC(=N)N)NC(=O)[C@H](CC(=O)O)NC(=O)[C@H](Cc2cnc[nH]2)NC(=O)CN(C)C(=O)[C@H](Cc2ccc(-c3ccc(NC(=O)CCCC(=O)O)cc3)cc2)NC(=O)[C@H](Cc2ccc(-c3ccccc3)cc2)NC(=O)[C@H](CC2CCCCC2)NC(=O)CSC[C@@H](C(=O)NCC(N)=O)NC(=O)[C@H](CC(C)C)NC(=O)[C@H](Cc2cnc[nH]2)NC(=O)[C@H](C(C)C)NC(=O)[C@@H]2CCCN2C1=O [Example 324] ({CH2CO}-[Cha][Bip][X73][Sar]HD[dR]IPVHLCG-NH2; thioether N-13)
6,< 0.05 µM,CC[C@H](C)[C@@H]1NC(=O)[C@@H](CCCNC(=N)N)NC(=O)[C@H](CC(=O)O)NC(=O)[C@H](Cc2cnc[nH]2)NC(=O)CN(C)C(=O)[C@H](Cc2ccc(-c3ccc(NC(=O)c4cccc(OCC(=O)O)c4)cc3)cc2)NC(=O)[C@H](Cc2ccc(-c3ccc(C(=O)O)cc3)cc2)NC(=O)[C@H](CC2CCCCC2)NC(=O)CSC[C@@H](C(=O)NCC(N)=O)NC(=O)[C@H](CC(C)C)NC(=O)[C@H](Cc2cnc[nH]2)NC(=O)[C@H](C(C)C)NC(=O)[C@@H]2Cc3ccccc3CN2C1=O [Example 372] ({CH2CO}-[Cha][Bip(4'-COOH)][Bip(4'-NH)](Benzoyl(3-OCH2COOH))[Sar]HD[dR]I[Tic]VHLCG-NH2; thioether N-13)
7,0.2 to 2 µM,CC(C)C[C@@H]1NC(=O)[C@H](Cc2csc3ccccc23)NC(=O)[C@H](C(C)C)NC(=O)[C@@H]2CCCN2C(=O)[C@H](C(C)C)NC(=O)[C@@H](CCCNC(=N)N)NC(=O)[C@H](CC(=O)O)NC(=O)[C@H](Cc2ccc(O)cc2)NC(=O)CN(C)C(=O)[C@H](Cc2ccc(-c3ccccc3)cc2)NC(=O)[C@H](Cc2ccc(-c3ccccc3)cc2)NC(=O)[C@H](CN2CCOCC2)NC(=O)CSC[C@@H](C(=O)NCC(N)=O)NC1=O [Example 158] ({CH2CO}-[Ala(morpholin-4-yl)][Bip][Bip][Sar]YD[dR]VPV[Bta]LCG-NH2; thioether N-13)

# — patent US20250145665A1, “MACROCYCLIC PEPTIDES USEFUL AS MODULATORS OF TNF ALPHA” (Bristol-Myers Squibb Company, priority 2023, published 2025)
